How the values were obtained:
[1] = molecular target: T1, PSMA (Homo sapiens, UniProt Q04609); test: In vitro competition binding assay on LNCaP cells with ^18F-DCFPyL as radioligand; details: LNCaP cells, 0.1 nM ^18F-DCFPyL radioligand, 1 h at 37°C; n = 3
T1 construct: because it expresses PSMA endogenously and is commonly used to evaluate PSMA-targeting radiotracers; endogenous in cells; host or cells: LNCaP cells
Procedure: LNCaP cells were plated onto a 24-well poly-D-lysine coated plate for 48 h (400,000/well). […] Nonspecific binding was determined in the presence of 10 μM unlabeled DCFPyL. The assay mixtures were incubated for 1 h at 37°C with gentle agitation followed by 2 washes with cold HEPES buffered saline. A trypsin solution (0.25%, 400 μL) was then added to each well to harvest the cells. Radioactivity was measured by γ-counting, and Ki values were calculated using the “1 site—fit Ki” built-in model in Prism 7 (GraphPad).

[2] = Distribution coefficient (LogD7.4), shake flask method; type: physicochemical; details: n-octanol / phosphate buffer 0.1 M pH 7.4; n = 3
Procedure: LogD7.4 values were measured using the shake flask method. Briefly, an aliquot of ^18F-labeled tracer was added to a vial containing 2.5 mL of n-octanol and 2.5 mL of phosphate buffer (0.1 M, pH 7.4). The mixture was vortexed for 2 min and then centrifuged at 3,000g for 10 min. A sample of the n-octanol (0.1 mL) and buffer (0.1 mL) layers was counted using a γ-counter. Values of LogD7.4 were calculated using the following equation: LogD7.4 = log10 [(counts in n-octanol phase)/(counts in buffer phase)].

[3] = tested on: LNCaP xenografts; test: Ex vivo biodistribution and blocking studies in mice bearing LNCaP xenografts; details: for tumor uptake: LNCaP tumor
Procedure: Imaging and biodistribution experiments were performed using NODSCID IL2RγKO male mice. All experiments were conducted according to the guidelines established by the Canadian Council on Animal Care and approved by the Animal Ethics Committee of the University of British Columbia. Mice were anesthetized by inhalation with 2% isoflurane in oxygen and implanted subcutaneously with 1 × 10^7 LNCaP cells behind the left shoulder. The mice were imaged or used in biodistribution studies once the tumor reached 5–8 mm in diameter (5–6 wk).
For biodistribution and blocking studies, the mice were injected with 1–3 MBq of radiotracer. At 60 min, the mice were anesthetized with 2% isoflurane inhalation and euthanized by CO2 inhalation. Blood was withdrawn by cardiac puncture, and the organs and tissues of interest were collected, weighed, and counted using an automatic γ-counter (PerkinElmer). Uptake values were expressed as the percentage of the injected dose per gram of tissue (%ID/g).
A standard 1-way ANOVA was performed to determine whether statistically significant differences in tumor uptake occurred between radiotracers. Each radiotracer was compared with ^18F-DCFPyL using the Dunnett test (a many-to-one t test comparison). This analysis was also performed for kidney and blood activity and for tumor-to-blood and tumor-to-muscle ratios. Reported P values were adjusted for multiple comparisons. The analysis was performed using Prism 8 (GraphPad). […]
Statistical analyses were performed using GradPad prism 7. Multiple t tests were performed to compare biodistribution in unblocked and blocked mice, multiple comparisons were corrected using the Holm-Sidak method. The difference was considered statistically significant when p value was < 0.05.
Supplemental Table 1 – Complete biodistribution study for compounds [18F]1–3 […]
Tissue 1h 1h blocked 1h 1h blocked 1h 1h blocked
(%ID/g) n = 8 n = 4 n = 6 n = 4 n = 8 n = 5 […]
(1 picture or pasted object on this page, not shown here)

[4] = 1 h blocked (coinjection of DCFPyL 0.5 mg)

T1 sequence (Q04609 whole entry): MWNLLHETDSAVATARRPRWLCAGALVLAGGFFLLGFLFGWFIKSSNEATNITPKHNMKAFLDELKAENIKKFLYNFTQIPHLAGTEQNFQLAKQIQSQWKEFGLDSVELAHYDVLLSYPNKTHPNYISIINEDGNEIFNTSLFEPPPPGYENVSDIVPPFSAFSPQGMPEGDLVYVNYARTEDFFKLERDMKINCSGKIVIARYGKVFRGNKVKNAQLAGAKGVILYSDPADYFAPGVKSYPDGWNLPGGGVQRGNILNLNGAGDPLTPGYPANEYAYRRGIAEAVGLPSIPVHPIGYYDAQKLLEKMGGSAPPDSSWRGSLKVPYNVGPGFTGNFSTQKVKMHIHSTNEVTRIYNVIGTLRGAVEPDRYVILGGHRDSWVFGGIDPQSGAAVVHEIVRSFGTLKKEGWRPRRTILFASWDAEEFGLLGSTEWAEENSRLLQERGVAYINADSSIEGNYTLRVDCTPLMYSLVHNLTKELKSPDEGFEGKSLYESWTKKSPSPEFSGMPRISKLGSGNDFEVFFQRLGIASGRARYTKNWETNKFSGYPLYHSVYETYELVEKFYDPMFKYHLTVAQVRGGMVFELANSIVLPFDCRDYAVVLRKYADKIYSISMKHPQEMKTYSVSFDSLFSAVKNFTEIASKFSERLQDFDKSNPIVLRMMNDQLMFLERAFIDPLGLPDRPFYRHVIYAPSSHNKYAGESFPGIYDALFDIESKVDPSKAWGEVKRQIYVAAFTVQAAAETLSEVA

C[N+](C)(Cc1ccc(C(=O)NCCCC[C@H](NC(=O)N[C@@H](CCC(=O)O)C(=O)O)C(=O)O)cc1)C[B-](F)(F)F [^18F-1]
Ki [1]: 14.4 ± 2.7 nM | LogD7.4 [2]: −3.43 ± 0.35 | T/B (tumor-to-blood ratio) ([3]; 1 h after injection, unblocked): 10.82 ± 1.64 | T/K (tumor-to-kidney ratio) ([3]; 1 h after injection, unblocked): 0.07 ± 0.06 | T/M (tumor-to-muscle ratio) ([3]; 1 h after injection, unblocked): 23.43 ± 3.71 | adrenal uptake ([3]; 1 h after injection, unblocked): 4.77 ± 1.75 %ID/g | blood uptake ([3]; 1 h after injection, unblocked): 0.57 ± 0.15 %ID/g | bone uptake ([3]; 1 h after injection, unblocked): 0.36 ± 0.02 %ID/g | brain uptake ([3]; 1 h after injection, unblocked): 0.04 ± 0.01 %ID/g | fat uptake ([3]; 1 h after injection, unblocked): 0.99 ± 0.39 %ID/g | heart uptake ([3]; 1 h after injection, unblocked): 0.30 ± 0.06 %ID/g | intestine uptake ([3]; 1 h after injection, unblocked): 0.54 ± 0.11 %ID/g | kidney uptake ([3]; 1 h after injection, unblocked): 114.00 ± 41.30 %ID/g | liver uptake ([3]; 1 h after injection, unblocked): 2.90 ± 0.56 %ID/g | lung uptake ([3]; 1 h after injection, unblocked): 1.37 ± 0.36 %ID/g | muscle uptake ([3]; 1 h after injection, unblocked): 0.26 ± 0.08 %ID/g | pancreas uptake ([3]; 1 h after injection, unblocked): 0.55 ± 0.16 %ID/g | spleen uptake ([3]; 1 h after injection, unblocked): 2.67 ± 0.98 %ID/g | stomach uptake ([3]; 1 h after injection, unblocked): 0.12 ± 0.05 %ID/g | testes uptake ([3]; 1 h after injection, unblocked): 0.62 ± 0.15 %ID/g | tumor uptake compared with ^18F-DCFPyL ([3]; 1 h after injection, 1-way ANOVA, Dunnett test): lower tumor uptake than ^18F-DCFPyL | T/B (tumor-to-blood ratio) [3, 4]: 0.91 ± 0.44 | T/K (tumor-to-kidney ratio) [3, 4]: 0.10 ± 0.03 | T/M (tumor-to-muscle ratio) [3, 4]: 2.63 ± 1.10 | adrenal uptake [3, 4]: 0.35 ± 0.14 %ID/g | blood uptake [3, 4]: 0.45 ± 0.27 %ID/g | bone uptake [3, 4]: 0.30 ± 0.07 %ID/g | brain uptake [3, 4]: 0.03 ± 0.01 %ID/g | fat uptake [3, 4]: 0.14 ± 0.08 %ID/g | heart uptake [3, 4]: 0.15 ± 0.04 %ID/g | intestine uptake [3, 4]: 0.57 ± 0.23 %ID/g | kidney uptake [3, 4]: 3.54 ± 0.83 %ID/g | liver uptake [3, 4]: 3.00 ± 0.53 %ID/g | lung uptake [3, 4]: 0.25 ± 0.06 %ID/g | muscle uptake [3, 4]: 0.13 ± 0.03 %ID/g | pancreas uptake [3, 4]: 0.11 ± 0.03 %ID/g | spleen uptake [3, 4]: 0.13 ± 0.03 %ID/g | stomach uptake [3, 4]: 0.11 ± 0.08 %ID/g | testes uptake [3, 4]: 0.10 ± 0.02 %ID/g | tumor uptake ([3]; 1 h after injection, unblocked): 6.0 ± 1.2 %ID/g | tumor uptake ([3]; 1 h after injection, unblocked, listed as [18F]1): 6.04 ± 1.24 %ID/g | tumor uptake [3, 4]: 0.33 ± 0.07 %ID/g

O=C(O)CCC(NC(=O)NC(CCCCNC(=O)c1ccc([18F])nc1)C(=O)O)C(=O)O (centres unmarked) [^18F-DCFPyL, 2-(3-{1-carboxy-5-[(6-[^18F]fluoro-pyridine-3-carbonyl)-amino]-pentyl}-ureido)-pentanedioic acid, reference compound]
logD at 2 min [2]: -3.12 ± 0.22 | adrenal uptake ([3]; 1 h after injection, unblocked): 3.02 ± 2.14 %ID/g | blood uptake ([3]; 1 h after injection, unblocked): 0.60 ± 0.13 %ID/g | bone uptake ([3]; 1 h after injection, unblocked): 0.33 ± 0.07 %ID/g | brain uptake ([3]; 1 h after injection, unblocked): 0.03 ± 0.01 %ID/g | fat uptake ([3]; 1 h after injection, unblocked): 1.05 ± 0.64 %ID/g | heart uptake ([3]; 1 h after injection, unblocked): 0.35 ± 0.12 %ID/g | intestine uptake ([3]; 1 h after injection, unblocked): 0.33 ± 0.07 %ID/g | kidney uptake ([3]; 1 h after injection, unblocked): 123.76 ± 37.67 %ID/g | liver uptake ([3]; 1 h after injection, unblocked): 1.82 ± 0.24 %ID/g | lung uptake ([3]; 1 h after injection, unblocked): 1.62 ± 0.68 %ID/g | muscle uptake ([3]; 1 h after injection, unblocked): 0.29 ± 0.12 %ID/g | pancreas uptake ([3]; 1 h after injection, unblocked): 0.58 ± 0.32 %ID/g | spleen uptake ([3]; 1 h after injection, unblocked): 3.98 ± 2.35 %ID/g | stomach uptake ([3]; 1 h after injection, unblocked): 0.12 ± 0.03 %ID/g | testes uptake ([3]; 1 h after injection, unblocked): 0.57 ± 0.21 %ID/g | tumor uptake ([3]; 1 h after injection, unblocked): 11.64 ± 3.52 %ID/g

— article PMC6681697, “One-Step ^18F-Labeling and Preclinical Evaluation of Prostate-Specific Membrane Antigen Trifluoroborate Probes for Cancer Imaging” (Journal of Nuclear Medicine, 2019)
